Measurements as given in patent publication US4552882A, “7-(1-Pyrrolyl) derivatives of 1-ethyl-1,4-dihydro-4-oxoquinoline-3-carboxylic acids and 1-ethyl-1,4-dihydro-4-oxo-1,8-naphthyridine-3-carboxylic acids and their use as antimicrobial agents” (Provesan, SA, priority 1983, dated 1985).
Converted amounts (≈) assume the structure as drawn.

Experiments:
Type in all cases: cell-based
[1] = system: Bacillus subtilis ATCC 6633; assay: MIC in vitro; conditions: ATCC6633, Dextrose agar, 37° C., 20 hours
Experimental: (§1) (G. L. Daquet and Y. A. Chabbect, Techniques en bacteriologie (Bacteriological techniques), vol. 3, Flammarion Medecine Sciences, Paris, 1972 and W. B. Hugo and A. D. Rusell, Pharmaceutical Microbiology, Blackwell Scientific Publications, London, (1977)). Antibiotic medium no. 1 (seed agar) (Oxoid CM 327) Tryptone-soya broth (Oxoid CM 129) Ringer's physiological solution 1/4 (oxoid BR 52) Dextrose agar (BBL-11165) 0.1 N NaOH "Bacillus subtilis" ATCC 6633 Each of the microorganisms is seeded by streaking in tubes of Antibiotic medium No. 1 (seed agar), which are then incubated at 37° C. for 20 hours. Using a culture loop, the cultures are then seeded in tryptone-soyabroth and incubated at 37° C. for 20 hours. The culture obtained is diluted to 1/4 with Ringer's physiological solution, so as to obtain a standardized suspension of 10^7 -10^9 cfu/ml for each organism. Starting from a solution of 1,000 μg/ml in 0.1 N NaOH, each product is diluted in Dextrose agar (previously melted and maintained at 50° C.), with successive dilutions so as to obtain the following concentrations: 64--32--16--8--4--2--1--0.5--0.25--0.125 μg of derivative/ml medium. For each product, the solution of each concentration is subsequently distributed into Petri dishes 10 cm in diameter, with 10 ml of medium per dish and the same number of dishes as microorganisms to be tested. As soon as the medium has cooled, the dishes are seeded with the inoculations using 0.4 ml of inoculation per dish. They are spread with a Driglasky loop and the supernatant is removed. The seeded dishes are incubated at 37° C. for 20 hours.

[2] = system: Serratia marcescens ATCC 13880; assay: MIC in vitro; conditions: ATCC13880, Dextrose agar, 37° C., 20 hours
Experimental: as §1, with “"Serratia marcescens"” for “"Bacillus subtilis"”, “13880” for “6633”

[3] = system: enterobacteriaceae (Pseudomonas aeruginosa); assay: in vitro antimicrobial activity compared to pipemidic acid
Experimental: (G. L. Daquet and Y. A. Chabbect, Techniques en bacteriologie (Bacteriological techniques), vol. 3, Flammarion Medecine Sciences, Paris, 1972 and W. B. Hugo and A. D. Rusell, Pharmaceutical Microbiology, Blackwell Scientific Publications, London, (1977)).
Antibiotic medium no. 1 (seed agar) (Oxoid CM 327)
Tryptone-soya broth (Oxoid CM 129)
Ringer's physiological solution 1/4 (oxoid BR 52) Dextrose agar (BBL-11165) 0.1 N NaOH
Each of the microorganisms is seeded by streaking in tubes of Antibiotic medium No. 1 (seed agar), which are then incubated at 37° C. for 20 hours. Using a culture loop, the cultures are then seeded in tryptone-soyabroth and incubated at 37° C. for 20 hours. The culture obtained is diluted to 1/4 with Ringer's physiological solution, so as to obtain a standardized suspension of 10^7 -10^9 cfu/ml for each organism.
Starting from a solution of 1,000 μg/ml in 0.1 N NaOH, each product is diluted in Dextrose agar (previously melted and maintained at 50° C.), with successive dilutions so as to obtain the following concentrations: 64--32--16--8--4--2--1--0.5--0.25--0.125 μg of derivative/ml medium.
For each product, the solution of each concentration is subsequently distributed into Petri dishes 10 cm in diameter, with 10 ml of medium per dish and the same number of dishes as microorganisms to be tested.
As soon as the medium has cooled, the dishes are seeded with the inoculations using 0.4 ml of inoculation per dish. They are spread with a Driglasky loop and the supernatant is removed. The seeded dishes are incubated at 37° C. for 20 hours.

[4] = system: Enterobacter aerogenes ATCC 15038; assay: MIC in vitro; conditions: Klebsiella aerogenes, ATCC15038, Dextrose agar, 37° C., 20 hours
Description: as §1, with “"Enterobacter aerogenes"” for “"Bacillus subtilis"”, “15038” for “6633”

Row | Compound | MIC [1] [µg/mL] | MIC [2] [µg/mL] | "in vitro" activity compared to pipemidic acid [3] | MIC [4] [µg/mL]
1 | CCn1cc(C(=O)O)c(=O)c2ccc(-n3cccc3)cc21 [Example 1, 7-(1-pyrrolyl)-1-ethyl-1,4-dihydro-4-oxo-3-quinolinecarboxylic acid] | < 0.125 | 8 (≈ 28.3 µM) | greater than that of pipemidic acid | > 64
2 | CCn1cc(C(=O)O)c(=O)c2cc(F)c(-n3cccc3)cc21 [Example 2, 6-fluoro-7-(1-pyrrolyl)-1-ethyl-1,4-dihydro-4-oxo-3-quinolinecarboxylic acid] | < 0.125 | 2 (≈ 6.66 µM) | greater than that of pipemidic acid | 8 (≈ 26.6 µM)
3 | CCn1cc(C(=O)O)c(=O)c2ccc(-n3cccc3)nc21 [Example 3, 1-ethyl-1,4-dihydro-4-oxo-7-(1-pyrrolyl)-1,8-naphthyridine-3-carboxylic acid] | 0.25 (≈ 0.882 µM) | 16 (≈ 56.5 µM) | – | > 64
4 | CCn1cc(C(=O)O)c(=O)c2cc(F)c(-n3cccc3)nc21 [Example 4, 1-ethyl-1,4-dihydro-4-oxo-6-fluoro-7-(1-pyrrolyl)-1,8-naphthyridine-3-carboxylic acid] | 0.03 (≈ 0.0996 µM) | 2 (≈ 6.64 µM) | greater than that of pipemidic acid | 4 (≈ 13.3 µM)
5 | CCn1cc(C(=O)O)c(=O)c2cnc(N3CCNCC3)nc21 [Pipemidic acid, reference compound] | 8 (≈ 26.4 µM) | 16 (≈ 52.7 µM) | – | 32 (≈ 105 µM)
